From patent publication US9403894B2, “Glucagon analogues” (Zealand Pharma A/S, priority 2010, dated 2016) come the findings set out here.

Residues, ends and D or L forms follow the SMILES beside them.

For data set [1], the system named is high fat fed C57BL/6J mice. In words: Body weight gain in high fat fed C57BL/6J mice, 10 days s.c. treatment. The format is in vivo. The following applies: both doses 0.5 and 5 nmol/kg s.c. twice daily. On the procedure: C57BL/6J mice were acclimatized in their new environment for 4 weeks with free access to a high fat diet and water. […] Throughout the study, body weights were recorded daily and used to administer the body weight-corrected doses of peptide (FIG. 6). Mice were sacrificed by cervical dislocation.

The target in a further data set is GLP-1 receptor (Homo sapiens, UniProt P43220). In words: Class B GPCR counterscreen, calcium flux agonist format. The format is cell-based. As to conditions: at 12.5 μM and 125 nM. From the text:
(§1) The protocol design is as follows:
Background: The purpose of a counterscreen is to sort out artefacts and off-target activity.

The target of another data set is T1, GIP receptor (Homo sapiens, UniProt P48546).
T1 sequence (P48546 22-466): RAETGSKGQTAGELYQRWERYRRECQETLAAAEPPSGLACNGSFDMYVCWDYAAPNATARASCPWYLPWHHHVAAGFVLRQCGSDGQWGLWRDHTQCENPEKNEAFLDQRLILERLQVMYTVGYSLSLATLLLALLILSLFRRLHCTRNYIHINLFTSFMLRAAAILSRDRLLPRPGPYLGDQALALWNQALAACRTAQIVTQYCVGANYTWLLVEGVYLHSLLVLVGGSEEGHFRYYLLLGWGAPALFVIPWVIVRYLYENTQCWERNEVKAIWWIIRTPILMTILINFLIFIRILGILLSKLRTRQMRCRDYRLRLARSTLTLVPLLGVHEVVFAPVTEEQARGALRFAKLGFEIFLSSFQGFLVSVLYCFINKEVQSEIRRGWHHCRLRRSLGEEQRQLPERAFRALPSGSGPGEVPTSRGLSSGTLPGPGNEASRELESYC
In words: Class B GPCR counterscreen, calcium flux antagonist format. The following applies: at 10 μM and 100 nM. The format is cell-based. The procedure: as §1
(§2) Using the EC80 values determined previously, stimulated all pre-incubated sample compound and reference antagonist (if applicable) wells with EC80 of reference agonist.
(§3) Read for 180 seconds using the FLIPR^TETRA (this addition added reference agonist to respective wells)—then fluorescence measurements were collected to calculate IC50-values.

A further data set addresses T2, CRF2 receptor (Homo sapiens, UniProt Q13324).
T2 sequence (Q13324 1-411): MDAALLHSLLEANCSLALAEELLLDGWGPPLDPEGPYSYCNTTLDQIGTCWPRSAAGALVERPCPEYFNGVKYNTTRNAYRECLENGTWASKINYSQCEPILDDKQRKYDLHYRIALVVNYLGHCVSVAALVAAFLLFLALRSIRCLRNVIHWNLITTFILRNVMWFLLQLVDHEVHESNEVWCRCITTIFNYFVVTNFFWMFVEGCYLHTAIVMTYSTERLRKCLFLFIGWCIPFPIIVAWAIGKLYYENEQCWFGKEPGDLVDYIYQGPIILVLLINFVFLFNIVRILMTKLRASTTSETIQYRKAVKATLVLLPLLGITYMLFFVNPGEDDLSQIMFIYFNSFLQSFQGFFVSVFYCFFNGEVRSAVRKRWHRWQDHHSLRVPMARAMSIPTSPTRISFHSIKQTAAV
The description is as above. The format is cell-based. The following applies: at 10 μM. On the procedure:
as §1, §2, §3

The target of another data set is Secretin receptor (Homo sapiens, UniProt P47872). The description is as above. Type of data set: cell-based. As to conditions: at 10 μM. The procedure: as §1, §2, §3
Data set [2] has as its system diet induced obese C57BL/6J mice. The data set can be described thus: 3 weeks s.c. treatment in diet induced obese C57BL/6J mice: body weight and OGTT. As to conditions: s.c. twice daily. The format is in vivo. The procedure:
C57Bl/6J male mice, 6 weeks old, were acclimatized in their new environment with free access to a high fat diet and water. 36 weeks old, the animals were randomized into groups with similar average fasting (6 hours) blood glucose (assessed from blood samples taken from the tip of the tail). The mice were treated twice daily s.c. for three weeks with compound 6 or vehicle. Body weight was recorded daily. After peptide treatment an oral glucose tolerance test (OGTT) were performed after subjecting the animals to a 6 hour fast. Animals were dosed with peptide or vehicle in the morning. Approximately four hours later an initial blood sample (fasting blood glucose level) was taken. Thereafter an oral dose of glucose was given and the animals were returned to their home cages (t=0). BG was measured at t=15 min, t=30 min, t=60 min, t=90 min and t=120 min. All animals were sacrificed immediately following blood sampling by CO2 anesthesia followed by cervical dislocation.

In the next data set the test system is high fat diet fed mice. The data set can be described thus: 3 weeks s.c. treatment, lipids in 30 weeks high fat diet fed mice. The format is in vivo. As to conditions: 30 weeks high fat diet mice, 10 nmol/kg s.c. twice daily. On the procedure: The assay is an enzymatic colorimetric method. In the presence of magnesium ions, dextran sulfate selectively forms water-soluble complexes with LDL, VLDLA and chylomicrons, which are resistant to PEG-modified enzymes. The HDL cholesterol is determined enzymatically by cholesterol esterase and cholesterol oxidase coupled with PEG to the amino groups. Cholesterol esters are broken down quantitatively to free cholesterol and fatty acids. HDL cholesterol is enzymatically oxidized to choles-4-en-3-one and H2O2, and the formed H2O2 is measured colorimetrically (Cobas®; Application note HDLC3).
The direct determination of LDL takes advantage of the selective micellary solubilization of LDL by a nonionic detergent and the interaction of a sugar compound and lipoproteins (VLDL and chylomicrons). The combination of a sugar compound with detergent enables the selective determination of LDL in plasma. The test principle is the same as that of cholesterol and HDL, but due to the sugar and detergent only LDL-cholesterol esters are broken down to free cholesterol and fatty acids. Free cholesterol is then oxidized and the formed H2O2 is measured colorimetrically (Application note LDL_C, Cobas®).
The effect was measured on LDL, HDL and triglycerides (CHO: Total Cholesterol; HDL: High Density Cholesterol; LDL: Low Density Cholesterol; TRIG: Triglycerides; HDULDL: Ratio between HDL and LDL).

For a further data set, the system named is db/db mice. The data set can be described thus: 6 weeks s.c. administration in db/db mice: HbA1c and body weight. The format is in vivo. The following applies: versus vehicle. On the procedure: The HbA1c determination is based on Turbidimetric INhibition ImmunoAssay (TINIA) in which HbA1c in the sample reacts with anti-HbA1c to form soluble antigen-antibody complexes. Additions of polyhaptens react with excess anti-HbA1c antibodies to form an insoluble antibody-polyhapten complex, which can be measured turbidimetrically. Liberated hemoglobin in the hemolyzed sample is converted to a derivative having a characteristic absorption spectrum, which is measured bichromatically during the preincubation phases. The final result is expressed as percent HbA1c of total hemoglobin (Cobas®Application note A1C-2).
db/db (BKS.Cg-m+/+ Lepr^db/J) male mice, 5-6 weeks old, were obtained from Charles River Laboratories, Germany, and acclimatized in their new environment with free access to normal chow and water. […] Throughout the study, body weights were recorded daily and used to administer the body weight-corrected doses of peptide. HbA1c levels were measured on blood samples before treatment, and then once weekly during the study. […]
Blood samples were analyzed for HbA1c using the Cobas c111 analyzer (Roche Diagnostics, Mannheim, Germany). Samples for HbA1c analysis were analyzed within 24 hours of sampling.
Throughout the study, body weights were recorded daily and used to administer the body weight-corrected doses of peptide. […]

In another data set the target is Glucagon receptor (Homo sapiens, UniProt P47871). As to conditions: at 12.5 μM and 125 nM. The procedure:
Unless specified otherwise, the sample compounds were diluted in 100% anhydrous DMSO including all dilutions. If the sample compound is provided in a different solvent all master stock dilutions are performed in the specified solvent. All control wells contained identical solvent final concentrations as the sample compound wells.
Reference agonists were handled as mentioned above serving as assay control. The reference agonists were handled as described above for Emax.

Another data set is described as follows: in vivo. As to conditions: male, cynomolgus monkey.
Setting [3] is: diet induced obese C57BL/6J mice.

Sequence of GLP-1 receptor (P43220 24-463): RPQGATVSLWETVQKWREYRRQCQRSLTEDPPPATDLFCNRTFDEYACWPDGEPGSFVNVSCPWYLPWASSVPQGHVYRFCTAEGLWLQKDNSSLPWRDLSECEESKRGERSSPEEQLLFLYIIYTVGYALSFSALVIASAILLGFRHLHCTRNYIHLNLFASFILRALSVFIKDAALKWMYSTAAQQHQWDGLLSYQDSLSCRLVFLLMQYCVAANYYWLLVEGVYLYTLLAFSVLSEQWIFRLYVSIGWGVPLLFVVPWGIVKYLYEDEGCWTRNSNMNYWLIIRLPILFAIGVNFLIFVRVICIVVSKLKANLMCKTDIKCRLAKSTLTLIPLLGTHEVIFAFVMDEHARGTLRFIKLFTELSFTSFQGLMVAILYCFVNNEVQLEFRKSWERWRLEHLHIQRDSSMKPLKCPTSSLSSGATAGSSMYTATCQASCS
Sequence of Secretin receptor (P47872 23-440, species assumed): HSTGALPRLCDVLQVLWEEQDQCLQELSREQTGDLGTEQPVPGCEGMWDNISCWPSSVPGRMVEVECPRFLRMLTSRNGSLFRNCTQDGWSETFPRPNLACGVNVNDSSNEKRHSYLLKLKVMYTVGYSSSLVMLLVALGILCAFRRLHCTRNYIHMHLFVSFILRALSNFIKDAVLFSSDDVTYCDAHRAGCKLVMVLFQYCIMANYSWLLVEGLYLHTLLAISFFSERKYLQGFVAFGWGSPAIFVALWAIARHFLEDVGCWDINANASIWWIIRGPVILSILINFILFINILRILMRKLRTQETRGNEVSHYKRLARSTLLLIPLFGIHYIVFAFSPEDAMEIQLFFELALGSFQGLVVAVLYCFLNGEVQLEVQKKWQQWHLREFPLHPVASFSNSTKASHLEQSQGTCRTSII
Sequence of Glucagon receptor (P47871 26-477): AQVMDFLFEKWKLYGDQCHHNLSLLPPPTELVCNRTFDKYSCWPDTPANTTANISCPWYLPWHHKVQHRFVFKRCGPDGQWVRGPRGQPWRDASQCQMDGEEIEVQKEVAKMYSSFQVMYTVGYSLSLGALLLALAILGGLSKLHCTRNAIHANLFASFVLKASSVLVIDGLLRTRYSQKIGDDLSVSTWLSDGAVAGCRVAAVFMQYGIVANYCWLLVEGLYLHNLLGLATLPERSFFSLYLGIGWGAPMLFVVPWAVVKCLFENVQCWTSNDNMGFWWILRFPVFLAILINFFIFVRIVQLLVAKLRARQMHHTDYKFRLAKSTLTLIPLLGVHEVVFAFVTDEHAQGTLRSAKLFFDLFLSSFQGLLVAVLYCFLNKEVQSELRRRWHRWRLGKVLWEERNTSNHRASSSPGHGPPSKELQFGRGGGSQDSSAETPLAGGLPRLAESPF
Method for in vivo: Plasma samples were withdrawn at the following time points; predose, 5, 10, 30 min, 1, 2, 4, 8, 12, 24 and 36 h post i.v. dosing and predose, 10, 30 min, 1, 2, 4, 8, 12, 24, 36 and 48 h post s.c. dosing. The vehicle consisted of 25 mM phosphate buffered saline at pH 7.4 (25 mM sodium phosphate, 25 mM NaCl). Plasma samples were analyzed using protein precipitation followed by solid phase extraction and LC-MS/MS analysis. Pharmacokinetic parameters were calculated using non-compartmental analysis in WinNonLin version 4.1.

`CCCCCCCCCCCCCCCC(=O)N[C@@H](CCC(=O)NCCCC[C@H](NC(=O)[C@H](CCC(=O)O)NC(=O)[C@H](CC(=O)O)NC(=O)[C@H](CC(C)C)NC(=O)[C@H](Cc1ccc(O)cc1)NC(=O)[C@H](CCCCN)NC(=O)[C@H](CO)NC(=O)[C@H](Cc1ccc(O)cc1)NC(=O)[C@H](CC(=O)O)NC(=O)[C@H](CO)NC(=O)[C@@H](NC(=O)[C@H](Cc1ccccc1)NC(=O)[C@@H](NC(=O)CNC(=O)[C@H](CCC(N)=O)NC(=O)[C@H](CO)NC(=O)[C@@H](N)Cc1c[nH]cn1)[C@@H](C)O)[C@@H](C)O)C(=O)N[C@@H](CCCNC(=N)N)C(=O)N[C@@H](C)C(=O)N[C@@H](CCCCN)C(=O)N[C@@H](CC(=O)O)C(=O)N[C@@H](Cc1ccccc1)C(=O)N[C@H](C(=O)N[C@@H](CCC(=O)O)C(=O)N[C@@H](Cc1c[nH]c2ccccc12)C(=O)N[C@@H](CC(C)C)C(=O)N[C@@H](CC(C)C)C(=O)N[C@@H](CO)C(=O)N[C@@H](C)C(N)=O)[C@@H](C)CC)C(=O)O` [Compound 6]: the “effect on body weight gain” value in data set [1] was “significantly decreased body weight gain”. The “agonist activity, GLP-1 receptor” value on GLP-1 receptor is on record as “exhibited agonist activities”. The “antagonist activity, GIP receptor” value on GIP receptor is on record as “exhibited antagonist activity”. Moreover, the “antagonist activity, CRF2 receptor” value on CRF2 receptor is “exhibited antagonist activity”. On Secretin receptor, the “antagonist activity, Secretin receptor” value is recorded as “exhibited antagonist activity”. For the same molecule, the “decrease of body weight” value in data set [2] (diet induced obese C57BL/6J mice (30 weeks high fat diet), p<0.05) was 38.7%. Further, in data set [2] (setting [3]), the “body weight level reached compared with non-treated controls on regular chow diet” value is listed as “stabilized to the same body weight as obtained by non-treated control animals on a regular chow diet” and the “effect on fasting blood glucose” value is reported as “significantly decreased fasting blood glucose”. In addition, the “effect on glucose tolerance (decrease in AUC during OGTT)” value in data set [2] (diet induced obese C57BL/6J mice, 6 hour fast) is “no significant effect on glucose tolerance”. In addition, in the data set with high fat diet fed mice (P<0.001), the “effect on HDL” value is recorded as “significantly decreased”, the “effect on LDL” value is “significantly decreased” and the “effect on total cholesterol” value is “significantly decreased”. In addition, the effect on triglycerides entry in the data set on high fat diet fed mice (P<0.05) was “significantly decreased”. The “effect on ratio HDULDL” value with high fat diet fed mice (p<0.001) was “increased significantly”. For the same molecule, the “effect on body weight gain” value with db/db mice (db/db mice, 5 nmol/kg s.c. twice daily, p<0.0001) is recorded as “significantly decreased body weight gain compared to vehicle”. In addition, the “effect on increase in HbA1c over time” value in the data set on db/db mice (db/db mice, 1, 2.5 and 5 nmol/kg s.c. twice daily) is “did not at any time-point reduce the increase in HbA1c”. Moreover, the “agonist activity, Glucagon receptor” value at Glucagon receptor is listed as “exhibited agonist activities”. Besides, the bioavailability – broadly, dose-corrected exposure relative to a reference, in per cent – in “in vivo” stood at 43%. The time to peak (Tmax) (as a rule, the time from dosing to the highest level) in “in vivo” (sc, 20 nmol/kg) lay within 4 to 8 h.
As to `CCCCCCCCCCCCCCCC(=O)N[C@@H](CCC(=O)NCCCC[C@H](NC(=O)[C@H](CCC(=O)O)NC(=O)[C@H](CC(=O)O)NC(=O)[C@H](CC(C)C)NC(=O)[C@H](Cc1ccc(O)cc1)NC(=O)[C@H](CCCCN)NC(=O)[C@H](CO)NC(=O)[C@H](Cc1ccc(O)cc1)NC(=O)[C@H](CC(=O)O)NC(=O)[C@H](CO)NC(=O)[C@@H](NC(=O)[C@H](Cc1ccccc1)NC(=O)[C@@H](NC(=O)CNC(=O)[C@H](CCC(N)=O)NC(=O)C(C)(C)NC(=O)[C@@H](N)Cc1c[nH]cn1)[C@@H](C)O)[C@@H](C)O)C(=O)N[C@@H](CCCNC(=N)N)C(=O)N[C@@H](C)C(=O)N[C@@H](CCCCN)C(=O)N[C@@H](CC(=O)O)C(=O)N[C@@H](Cc1ccccc1)C(=O)N[C@H](C(=O)N[C@@H](CCC(=O)O)C(=O)N[C@@H](Cc1c[nH]c2ccccc12)C(=O)N[C@@H](CC(C)C)C(=O)N[C@@H](CC(C)C)C(=O)N[C@@H](CO)C(=O)N[C@@H](C)C(N)=O)[C@@H](C)CC)C(=O)O` [Compound 7] (HELM PEPTIDE1{H.[Aib].Q.G.T.F.T.S.D.Y.S.K.Y.L.D.E.K.R.A.K.D.F.I.E.W.L.L.S.A.[am]}|PEPTIDE2{[CCCCCCCCCCCCCCCC(=O)[*:2]].[gGlu]}$PEPTIDE1,PEPTIDE2,17:R3-2:R2$$$V2.0), in data set [1], the “effect on body weight gain” value is listed as “significantly decreased body weight gain”.
